# Measured values reported in patent publication US10723733B2, “Hepatitis B antiviral agents” (Enanta Pharmaceuticals, Inc., priority 2017, dated 2020).
# Legend:
# HBV = assay: HepAD38 antiviral assay: reduction of viral product accumulation (virion DNA by qPCR, HBsAg/HBeAg by ELISA); type: cell-based; conditions: Hepatitis B virus, 120 h, HepAD38 cells, 50% reduction of viral product accumulation vs no drug controls, five days after compound addition
# Procedure: Methods: HepAD38 cells are maintained as previously reported (Ladner et al, Antimicrob. Agents Chemother. 1997, […], 1715). Briefly, cells are passaged upon attaining confluency in DMEM/F12 media in the presence of 10% FBS, Penn/Strep, 250 μg/mL G418, and 1 μg/ml tetracycline. Novel compounds are screened by first washing cells three times with PBS to remove tetracycline, and plating in 96 well plates at 35,000 cells/well. Compounds dissolved in DMSO are then diluted 1:200 into wells containing cells. Five days after compound addition, material is harvested for analysis. For an extended 8 day analysis, cells are plated and treated as described above, but media and compound are refreshed on d2 and d5 post initial treatment.
# On harvest day, virion DNA is obtained by lysing with Sidestep Lysis and Stabilization Buffer and then quantified via quantitative real time PCR. Commercially available ELISA kits are used to quantitate the viral proteins HBsAg (Alpco) or HbeAg (US Biological) by following the manufacturer's recommended protocol after diluting samples to match the linear range of their respective assays. Irrespective of readout, compound concentrations that reduce viral product accumulation in the cell lysates or supernatants by 50% relative to no drug controls (EC50) are reported; EC50 ranges are as follows: A<0.1 μM; B 0.1-1 μM; C>1 μM.
# [1] = Compound toxicity, ATPLite total ATP levels; type: cell-based; conditions: human, HepG2 cells, 50% reduction of total ATP levels (ATPLite), three days after compound addition
# Procedure: Compound toxicity is evaluated by seeding cells at 15,000 cells/well and treating with compound as described above.
SMILES,EC50 (HBV; class symbols) [nM],CC50 at 3 days [1] [nM],EC50 (HBV; given as numeric bound) [nM]
O=S(=O)(N[C@H]1CC2=C(c3cnn(C(F)F)c3)[C@H](c3ccc(F)cc3Cl)N=C(c3nccs3)N2C1)C1CC1 [Example 1],< 100,> 25000,–
O=S(=O)(N[C@H]1CC2=C(c3ccn(C4CC4)n3)[C@H](c3ccc(F)cc3Cl)N=C(c3nccs3)N2C1)C1CC1 [Example 3],< 100,> 25000,–
O=S(=O)(N[C@H]1CC2=C(c3cnn(C4CC4)c3)[C@H](c3ccc(F)cc3Cl)N=C(c3nccs3)N2C1)C1CC1 [Example 6],< 100,> 25000,–
O=S(=O)(N[C@H]1CC2=C(c3cnn(C(F)(F)F)c3)[C@H](c3ccc(F)cc3Cl)N=C(c3nccs3)N2C1)C1CC1 [Example 8],< 100,10000 to 25000,–
NS(=O)(=O)N[C@H]1CC2=C(c3cnn(C(F)F)c3)[C@H](c3ccc(F)cc3Cl)N=C(c3nccs3)N2C1 [Example 9],< 100,> 25000,–
CS(=O)(=O)N[C@H]1CC2=C(c3cnn(C(F)F)c3)[C@H](c3ccc(F)cc3Cl)N=C(c3nccs3)N2C1 [Example 10],< 100,> 25000,–
CNS(=O)(=O)N[C@H]1CC2=C(c3cnn(C(F)F)c3)[C@H](c3ccc(F)cc3Cl)N=C(c3nccs3)N2C1 [Example 11],< 100,> 25000,–
O=S(=O)(NC1CC1)N[C@H]1CC2=C(c3cnn(C(F)F)c3)[C@H](c3ccc(F)cc3Cl)N=C(c3nccs3)N2C1 [Example 12],< 100,10000 to 25000,–
CN(C)S(=O)(=O)N[C@H]1CC2=C(c3cnn(C(F)F)c3)[C@H](c3ccc(F)cc3Cl)N=C(c3nccs3)N2C1 [Example 13],< 100,> 25000,–
O=S(=O)(N[C@H]1CC2=C(c3cnn(C(F)F)c3)[C@H](c3ccc(F)cc3Cl)N=C(c3nccs3)N2C1)C1CCOCC1 [Example 56],< 100,> 25000,–
COCCS(=O)(=O)N[C@H]1CC2=C(c3cnn(C(F)F)c3)[C@H](c3ccc(F)cc3Cl)N=C(c3nccs3)N2C1 [Example 57],< 100,> 25000,–
COC(=O)N[C@]1(CO)CC2=C(c3ccn(C(F)F)n3)[C@H](c3ccc(F)cc3Cl)N=C(c3nccs3)N2C1 [Example 61],< 100,> 25000,–
O=C1N[C@@](CO)(CC2=C(c3ccn(C(F)F)n3)[C@H](c3ccc(F)cc3Cl)N=C(c3nccs3)N2)CO1 [Example 94],< 100,> 25000,–
OC[C@@]1(O)CC2=C(c3ccn(C(F)F)n3)[C@H](c3ccc(F)cc3Cl)N=C(c3nccs3)N2C1 [Example 122],100 to 1000,–,–
OC[C@]1(O)CC2=C(c3ccn(C(F)F)n3)[C@H](c3ccc(F)cc3Cl)N=C(c3nccs3)N2C1 [Example 123],–,–,> 400
CC(C)(C)OC(=O)NC[C@H]1CN(CC2=C(c3ccn(C(F)F)n3)[C@H](c3ccc(F)cc3Cl)N=C(c3nccs3)N2)C(=O)O1 [Example 124],–,–,> 400
COC(=O)NC[C@H]1CN(CC2=C(c3ccn(C(F)F)n3)[C@H](c3ccc(F)cc3Cl)N=C(c3nccs3)N2)C(=O)O1 [Example 125],–,–,> 400
CCOC(=O)NC[C@H]1CN(CC2=C(c3ccn(C(F)F)n3)[C@H](c3ccc(F)cc3Cl)N=C(c3nccs3)N2)C(=O)O1 [Example 126],–,–,> 400
CC(C)(C)OC(=O)NC[C@@H]1CN(CC2=C(c3ccn(C(F)F)n3)[C@H](c3ccc(F)cc3Cl)N=C(c3nccs3)N2)C(=O)O1 [Example 127],–,–,> 400
COC(=O)NC[C@@H]1CN(CC2=C(c3ccn(C(F)F)n3)[C@H](c3ccc(F)cc3Cl)N=C(c3nccs3)N2)C(=O)O1 [Example 128],–,–,> 400
CCOC(=O)NC[C@@H]1CN(CC2=C(c3ccn(C(F)F)n3)[C@H](c3ccc(F)cc3Cl)N=C(c3nccs3)N2)C(=O)O1 [Example 129],–,–,> 400

SMILES,EC50 (HBV; class symbols) [nM],CC50 at 3 days [1] [nM],EC50 (HBV; given as numeric bound) [nM]
CC(C)(C)OC(=O)NC[C@H]1CCC(=O)N1CC1=C(c2ccn(C(F)F)n2)[C@H](c2ccc(F)cc2Cl)N=C(c2nccs2)N1 [Example 130],–,–,> 400
CC(C)(C)OC(=O)NC[C@@H]1CCC(=O)N1CC1=C(c2ccn(C(F)F)n2)[C@H](c2ccc(F)cc2Cl)N=C(c2nccs2)N1 [Example 131],–,–,> 400
COC(=O)NC[C@H]1CCC(=O)N1CC1=C(c2ccn(C(F)F)n2)[C@H](c2ccc(F)cc2Cl)N=C(c2nccs2)N1 [Example 132],–,–,> 400
COC(=O)NC[C@@H]1CCC(=O)N1CC1=C(c2ccn(C(F)F)n2)[C@H](c2ccc(F)cc2Cl)N=C(c2nccs2)N1 [Example 133],–,–,> 400
CCOC(=O)NC[C@H]1CCC(=O)N1CC1=C(c2ccn(C(F)F)n2)[C@H](c2ccc(F)cc2Cl)N=C(c2nccs2)N1 [Example 134],–,–,> 400
CCOC(=O)NC[C@@H]1CCC(=O)N1CC1=C(c2ccn(C(F)F)n2)[C@H](c2ccc(F)cc2Cl)N=C(c2nccs2)N1 [Example 135],–,–,> 400
C=CCOCC(F)(COC)CC1=C(c2cnn(C(F)F)c2)[C@H](c2ccc(F)cc2Cl)N=C(c2nccs2)N1 (stereo partly drawn) [Example 136],–,–,> 400
OCC(F)(CO)CC1=C(c2cnn(C(F)F)c2)[C@H](c2ccc(F)cc2Cl)N=C(c2nccs2)N1 [Example 137],100 to 1000,–,–
COCC(F)(COC)CC1=C(c2cnn(C(F)F)c2)[C@H](c2ccc(F)cc2Cl)N=C(c2nccs2)N1 [Example 138],100 to 1000,–,–
C[C@H]1OC[C@](F)(CC2=C(c3cnn(C(F)F)c3)[C@H](c3ccc(F)cc3Cl)N=C(c3nccs3)N2)CO1 [Example 139],–,–,> 400
C[C@H]1OC[C@@](F)(CC2=C(c3cnn(C(F)F)c3)[C@H](c3ccc(F)cc3Cl)N=C(c3nccs3)N2)CO1 [Example 140],100 to 1000,–,–
CCC[C@H]1OC[C@](F)(CC2=C(c3cnn(C(F)F)c3)[C@H](c3ccc(F)cc3Cl)N=C(c3nccs3)N2)CO1 [Example 141],–,–,> 400
CCC[C@H]1OC[C@@](F)(CC2=C(c3cnn(C(F)F)c3)[C@H](c3ccc(F)cc3Cl)N=C(c3nccs3)N2)CO1 [Example 142],–,–,> 400
Fc1ccc([C@@H]2N=C(c3nccs3)NC(C[C@]3(F)CO[C@@H](c4ccccc4)OC3)=C2c2cnn(C(F)F)c2)c(Cl)c1 [Example 143],–,–,> 400
Fc1ccc([C@@H]2N=C(c3nccs3)NC(C[C@]3(F)CO[C@H](c4ccccc4)OC3)=C2c2cnn(C(F)F)c2)c(Cl)c1 [Example 144],–,–,> 400
O=S(=O)(CC1=C(c2cnn(C(F)F)c2)[C@H](c2ccc(F)cc2Cl)N=C(c2nccs2)N1)C1CCCC1 [Example 145],–,–,> 400
O=S(=O)(CC1=C(c2cnn(C(F)F)c2)[C@H](c2ccc(F)cc2Cl)N=C(c2nccs2)N1)N1CCC(O)CC1 [Example 146],–,–,> 400
OCC(F)(F)CC1=C(c2cnn(C(F)F)c2)[C@H](c2ccc(F)cc2Cl)N=C(c2nccs2)N1 [Example 147],–,–,> 400
OC[C@]1(F)CC2=C(c3cnn(C(F)F)c3)[C@H](c3ccc(F)cc3Cl)N=C(c3nccs3)N2C1 [Example 148],100 to 1000,–,–
OC[C@@]1(F)CC2=C(c3cnn(C(F)F)c3)[C@H](c3ccc(F)cc3Cl)N=C(c3nccs3)N2C1 [Example 149],100 to 1000,–,–
